Legend:
[1] = Chemical stability of conjugates in neutral, acidic and basic solutions; type: physicochemical
Description: Exemplary expérimental results showing the efficacy of certain embodiments of the combinations of the invention are set forth in the drawings. Stability studies were performed on thioester conjugates of N-acetylcysteine and salicylate, diflunisal or dexibuprofen, at neutral (pH 7), acidic, or basic (9) pH in phosphate-buffered saline (PBS). […] Diflunisal-NAC conjugates were tested for 3 or 24 hours under the same neutral, acidic and basic conditions, at room température or 4° C., and in PBS or mixture of water and méthanol.

[2] = tested on: db/db mice; experiment: Intraperitoneal glucose tolerance test in db/db mice; type: in vivo; conditions: salicylate-NAC 1.5, diflunisal-NAC 0.5 mmol/kg/day as lysine salt; glucose 0.5 g/kg ip, 120 minute timecourse
Description: At the fourth week of treatment, a Glucose Tolerance Test was done to the mice after an overnight fasting. The animals received an ip injection of Glucose 0.5 g/kg (Glucosmon 50®). The glycemia levels were determined in blood at the indicated time from the Tail Vein after the Glucose injection using a rapid glucose analyzer.

[3] = Cleavage by rat liver microsomes; type: in vitro ADME; conditions: 1 hour incubation; for cleavage of conjugate, rat versus human microsomes: free salicylate or diflunisal assayed
Description: (§1) In vitro cleavage experiments were performed substantiallas described in Singh et al., 1996, In vitro metabolism of a potent HIV-protease inhibitor (141W94) using rat, monkey and human liver S9, Rapid Commun. Mass Spectrom. 10: 1019-1026. Briefly, conjugate compounds of the invention were incubated at a final concentration of 1 microM for 1 hour in the presence of human or rat liver microsome S9 (obtained from Xenotech). At the end of incubation at each of the time points reported, an equal volume of an organic mixture (acetonitrile/methanol, 50/50, v/v) was added to the incubation mixture followed by centrifugation. At this time blank microsomal extract was spiked with metabolites to create calibration standards for each metabolite at the following concentrations: 0 (blank), 0.05, 0.1, 0.5 and 1 microM. All samples were analyzed by HPLC-MS/MS and the peak areas corresponding to the expected metabolites (generally, antioxidant and anti-inflammatory cleaysasge products) were determined by HPLC-MS/MS. The amount of each metabolite present in the 60 minute incubation samples was determined from the corresponding calibration curve.
The capacity for conjugates of the invention to be cleaved was tested in vitro using rat or human liver microsomes. […] Similar experiments were performed in plasma from rat or human for salicylate-NAC or diflunisal-NAC conjugates; thèse results are shown in FIGS. 3 and 4, respectively.

[4] = tested on: db/db mice; experiment: Chronic treatment in db/db mice; type: in vivo
[5] = tested on: alloxan-treated cd-1 mice; experiment: In vivo beta cell protection model (alloxan); conditions: for plasma insulin levels: lysine salt, alloxan-treated (FIG. 6)
Description: Beta-cell destruction was induced in cd-1 mice after 3 hours of fasting by a single intraperitoneal injection of a freshly prepared solution of alloxan 200 mg/kg (Sigma-Aldrich, San Luis, Mo.) that was dissolved in NaCl 0.9%. Single intraperitoneal drug administration was 1 hour before the alloxan administration. Animals received the different drugs dissolved in PBS pH 7.4, and the animals that not received any drug were injected with the vehicle, in this case PBS pH 7.4. At the end of the treatment, at day 4, animals were killed and the plasma collected and kept at −20° C. until used.
(§2) The circulating glucose concentration was determined by a rapid glucose analyzer (Accu-Chek Aviva; Roche). Plasma triglycerides and non esterified fatty acids were determined with standard colorimetric methods (Biosystems, Barcelona, Spain, and Wako Chemicals, Neuss, Germany, respectively). Plasma insulin concentration was determined by enzyme-linked immunosorbent assay method (CrystalChem, Downers Grove, Ill.). Total pancreas insulin content has been determined after extraction of insulin with a mixture Ethanol (70%)/HCl (0.15 N) from pancreas homogenates.

[6] = tested on: control animals; experiment: Preliminary experiment with control animals (oral diflunisal-NAC); type: in vivo; conditions: oral 0.5 mmol/kg
[7] = tested on: db/db mice; experiment: Pancreas insulin content and immunohistochemical analysis of pancreas sections in db/db mice; type: in vivo; conditions: chronic oral, four weeks, 0.5 mmol/kg/day (FIG. 24)
Description: as §2
The pancreas was removed from each mouse and fixed overnight in a solution of 4% formalin. Fixed tissues were processed routinely for paraffin embedding, and 6-μm sections were prepared and mounted on slides treated with xilane. For detection of insulin, the avidin-biotin complex (ABC) method was performed using Vectastain ABC Kit (Vector Laboratories). Deparaffinized and […] sections were microwaved in citrate buffer (pH 6.0) for antigen retrieval, then were incubated in Tris 100 mM pH 7.4 containing 3% BSA, and 0.01% Triton, to permeabilize and block nonspecific staining, for 30 min, and after that, were incubated with the guinea pig polyclonal anti-insulin antibody (Dako), diluted 1/500 in blocking solution for 2 hours. Negative controls were incubated with blocking solution without the primary antibody. […]

[8] = Diflunisal and NAC blood levels after oral administration of conjugate versus separate components; type: in vivo, rats; conditions: 7-hour timecourse (FIG. 16)
Description: A comparison of diflunisal and NAC levels in blood after oral administration was performed in rats by administration of the diflunisal-NAC conjugate (GMC-252) or the individual components separately (i.e., not chemically conjugated). Conjugate (20 mg/kg) or the equivalent amount of difliunisal and NAC were administered and blood assayed over a 7-hour timecourse.

[9] = Cleavage by human liver microsomes; type: in vitro ADME; conditions: 1 hour incubation; diflunisal-NAC compared with salicylate-NAC
Description: as §1
The capacity for conjugates of the invention to be cleaved was tested in vitro using rat or human liver microsomes. […]

[10] = tested on: human diabetic patients; conditions: 4.5 g/day; cited from earlier work
[11] = 0.75 mmol/kg/day as lysine salt, ip, compared with separate administration of salicylate or NAC (FIG. 7)

CC(=O)NC(CSC(=O)C(C)c1ccc(CC(C)C)cc1)C(=O)O (stereo not drawn) [Dexibuprofen-NAC]
stability of free acid in water/methanol mixture ([1]; free acid, water/methanol, 3 and 24 hours (diflunisal-NAC: neutral pH, room temperature)): stable for 3- and 24-hour incubation | stability of lysine salt at neutral pH ([1]; lysine salt, neutral pH, room temperature or 4° C.): stable as lysine salts

CC(=O)N[C@@H](CSC(=O)c1ccccc1O)C(=O)O [Example 1, (R)-2-acetamido-3-(2-hydroxybenzoylthio)propanoic acid]
plasma glucose in glucose tolerance test [2]: reductions in plasma glucose | cleavage of conjugate, rat versus human microsomes [3]: Rat microsomes were found to be more potent in cleaving | free fatty acid levels ([4]; 0.38 mmol/kg/day or equivalent amount of combination (FIG. 18)): lowered significantly only by the conjugate | free fatty acid levels [4, 11]: significantly improved | plasma triglyceride levels [4, 11]: significantly improved | free fatty acid levels ([4]; 0.75 mmol/kg/day or equivalent amount of combination (FIG. 18)): statistically-significant reductions | triglycerides ([4]; chronic oral, diflunisal-NAC 0.5, salicylate-NAC 1.5 mmol/kg/day as lysine salt (FIG. 11)): significant réductions in triglycerides | stability under acidic conditions, lysine salt ([1]; 3 h): stable after 3 hours | stability, free acid in the absence of lysine ([1]; 3 days): lost stability during a 3-day timecourse | detectable conjugate under basic conditions ([1]; basic pH (9), PBS, room temperature, 3 hour incubation, free acid and lysine salt tested): only the lysine salt showed any (sparing) détectable conjugate | glycemia ([5]; 0.38 mmol/kg or equivalent amount of combination, 4-day timecourse, male cd-1 mice (FIG. 17)): statistically-significant reduction | pancreatic beta-cell function (as assessed by plasma insulin levels) ([5]; alloxan-treated mice (FIG. 17)): statistically-significant potection of pancreatic beta-cell function | plasma insulin levels ([5]; i.p., listed as GMC-3a): preservation of insulin levels | plasma insulin levels ([5]; i.p., listed as salicylate-NAC): an increase in plasma insulin levels | effect of alloxan on β-cells ([5]; lysine salts (FIG. 6)): reduce the effect of alloxan on β-cells | glycemia ([5]; lysine salts, i.p., 4-day timecourse (FIG. 6)): statistically-significant reductions in glycemia

CC(=O)N[C@@H](CSC(=O)c1cc(-c2ccc(F)cc2F)ccc1O)C(=O)O [Example 13]
body weight and epididimal adipose tissue weight [6]: did not affect these two parameters | cleavage of conjugate, rat versus human microsomes [3]: Rat microsomes were found to be more potent in cleaving | percentage of anti-inflammatory component released by rat liver microsomes ([3]; diflunisal-NAC compared with salicylate-NAC): a higher percentage of diflunisal that salicyalte was released | body weight of treated db/db mice ([4]; oral 0.5 mmol/kg (FIG. 20)): did not affect the weight | epididimal adipose tissue weight ([4]; oral 0.5 mmol/kg, treated group (vehicle 1.7±0.09)): 1.8 ± 0.07 g | macroscopic lesions of the gastro intestinal system ([4]; oral treatment of db/db mice): did not induce any macroscopic lesions | stability of lysine salt in PBS, 3 hours [1]: stable | stability of lysine salt in water/methanol mixture [1]: did not show comparable stability | stability of lysine salt in PBS, 24 hours ([1]; 24 h, pH 7): not after 24 hours | stability of free acid in water/methanol mixture ([1]; pH 7): stable over 3 and 24 hours | pancreatic weight [7]: without affecting pancreatic weight | plasma concentration profile of diflunisal and NAC ([8]; oral 20 mg/kg conjugate versus equivalent diflunisal and NAC given separately): a more gradual increase in plasma concentrations | final plasma concentrations of diflunisal and NAC ([8]; oral 20 mg/kg conjugate versus separate components): the final concentrations were the same | percentage of anti-inflammatory component released by human liver microsomes [9]: a higher percentage of diflunisal that salicyalte was released

O=C(Oc1ccccc1C(=O)O)c1ccccc1O [salsalate]
enhancement of side effects such as tinnitus [10]: 66%

— patent US8575217B2, “Anti-inflammatory and antioxidant conjugates useful for treating metabolic disorders” (Genmedica Therapeutics SL, priority 2009, dated 2013)
